# Data as given in patent publication US7052850B2, “Isolated human EDG-4 receptor” (priority 1997, dated 2006).
# Entries after “also recorded” stand apart in the source; their conditions may differ.
# What was measured:
# HL-60 cells = experiment: IL-8 response in HL-60 cells; type: cell-based, human; conditions: 1, 6 or 24 hours, S1P or LPA up to 3 μM, TNF-α 10 ng/ml
# [1] = system: pcDNA3-transfected 293-EBNA cells; experiment: NF-κB luciferase reporter in 293-EBNA cells, empty vector pcDNA3; type: cell-based; conditions: empty vector control; S1P, SPC 1-10 μM, LPA 10 μM, 20% FBS
# Description: • 1) 150 mm plates of 293-EBNA obtained from Invitrogen (Cat. R620-07) with a confluency of 18 80% were used for transfection. • 2) 6.6 μg NF-κB-tk-p4Luc reporter DNA and 6.6 μg of pC3-redg4 (expressing rat EDG-4), or pcDNA3 DNA was diluted in 500 μl OPTI-MEM (Gibco; Cat. 31985-062) • 3) 96.8 μl Lipofectamine (Gibco; Cat. 18324-020) was diluted in 500 μl of OPTI-MEM. • 4) The 2 solutions were mixed gently and the tube was incubated for 30 min at room temperature. • 5) The 293-EBNA plates were washed once with PBS and 13 ml OPTI-MEM was added to each plate, • 6) 6 ml OPTI-UMM was added to each transfection tube and this was added to a plate of 293EBNA cells. The plates were left for 4 hrs at 37° C. in a 5% CO2 incubator. • 7) After 4 his, the media was removed and replaced with frest 10% FBS media. Day 2: • 1) Transfected cells were washed, typsinized with 1× tryspin, resuspended in 10 ml media and counted. • 2) 0.02×10 ^6 cells were plated per well of a 96-well Blackview plate coated with polyD-lysine. No cells were plated in the outside wells of the 96-well plate. Two 96-well plates were seeded for each transfection. Day 3: • 1) Cells were washed with PBS and 140 μl serum-free media (SFM) added to each well. Plates were incubated in 37° C. incubator for 6 hrs. • 2) After 6 hrs, media was removed and cells treated with compounds diluted in 0.5% FBS media (140 μl added to each well). The Following Treatments Were Used: pcDNA3:
# Day 4 Luciferase Assay • 1) Luclite kit (Packard; Cat. 6016911) was used for luciferase assay. All reagents were brought to room temperature before use. • 2) Supernatant was transferred to a new 96-well plate and stored at −20 C. for […] IL-8 measurement. • 3) 50 μl 0.5 M HEPES pH 7.8 buffer (1 mM MgCl21 mM CaCl2) was addeded to all wells of 96-well plate. […] A stop plate was placed on top of the blackview plate to keep it in the dark. • 6) Plates were incubated at room temperature for 30 min. • 7) After incubation, plates were counted in a 12 detector Packard Top Count on a program without dark delay. […]
# 293-EBNA cells = experiment: IL-8 production in 293-EBNA cells; type: cell-based; conditions: untransfected
# rat EDG-4 = rat EDG-4 (Rattus norvegicus, UniProt P47752); experiment: NF-κB-tk-p4Luc luciferase reporter in 293-EBNA cells, rat EDG-4; type: cell-based; design: transient transfection with a eukaryotic expression vector expressing full-length rat edg-4 cDNA; expressed in transfected cells; host or cells: 293-EBNA
# Description: First, the NF-κB response element was reconstructed in a new reporter construct (p4Luc) suitable for stable maintenance as an episome in primate cells. […] The p4-Luc reporter used the backbone of pREP4 (Invitrogen; Cat. V004-50), which contains the EBV orgin of replicaiton (EBVoni), as well as the EBNA-1 viral antigen required to maintain EBVoti containing plasmids as stable episoms in primate cells, and a prokayotic selection marker. A dominant eukaryotic selection marker for zeocin resistance was substituted for expression in pREP4. The promoter of pREP4 was then excised and replaced with a multi-cloning site for introduction of promoter/enhancer inserts. The NF-κB inser of the previous CAT reporter was subcloned into this site and all cloning junctions were sequenced to verify the structure of the plasmid, called NF-κB-tk-p4Luc.
# Day 4 Luciferase Assay • 1) Luclite kit (Packard; Cat. 6016911) was used for luciferase assay. All reagents were brought to room temperature before use. • 2) Supernatant was transferred to a new 96-well plate and stored at −20 C. for rupture IL-8 measurement. • 3) 50 μl 0.5 M HEPES pH 7.8 buffer (1 mM MgCl21 mM CaCl2) was addeded to all wells of 96-well plate. Black adhesive backing (polyfitronics) was aligned to the bottom of the viewplate. • 4) Luclite substrate was made up by adding 10 ml substate diluent to 1 vial lyophilized substrate. Reconstituted substrate was kept under a dark container. 50 μl substrate was added to each well. • 5) A clear adhesive plate sealer was adjusted on to the viewplate and sealer rubbed over the plate with a Kimwipe. The plate was shaken on a plate shaker at 500 rpm for 5 seconds right side up and then upside down. A stop plate was placed on top of the blackview plate to keep it in the dark. • 6) Plates were incubated at room temperature for 30 min. • 7) After incubation, plates were counted in a 12 detector Packard Top Count on a program without dark delay.
# human EDG-3 [2] = experiment: NF-κB luciferase reporter in 293-EBNA cells, human EDG-3; type: cell-based; conditions: for NF-κB response: original human EDG-3 clone (Assay 2)
# Description: The above protocol for assay 1 was followed except for the following changes: • 1) 100 mm plates of 293-EBNA with a confluency of ˜80% were used for transfection. • 2) 3 μg NFκB-tk-p4Luc reporter DNA and 3 μg pC3-hedg1, pC3-hedg 3, pC3-redg4, pC3-hedg5 or pcDNA3 DNA was diluted in 240 μl OPTI-MEM (Gibco; Cat. 31985-062) • 3) 22 μl lipofectamine (Gibco; Cat. 1 8324-020) was diluted in 240 μl OPTI-MEM. • 4) The 293-EBNA plates were washed once with PBS and 7 ml OPTI-MEM was added to each plate. • 5) DNA/lipofectamine mixture was added to each plate of 293-EBNA cells. The plates were left for 4 hrs at 37° C. in a 5% CO2 incubator. Day 2: • 1) 0.01×10^6 cells were plated per well of 96-well Blackview plate coated with polyD-lysine. No cells were plated in the outside wells of the 96-well plate. Day 3: The following treatments were used for all transections:
# Expression plasmid and reporter plasmid DNA samples were combined and diluted in 750 μl of DMEM/F12 (serum free media) and 20 μl Plus Reagent (Lipofectamine Plus Kit, Life Technologies Cat. 109640-13), and incubated at room temperature for 15 min. • 3) 30 μl Lipofectamine Reagent (Lipofectamine Plus Kit) was diluted in 750 μl DMEM/F12. The diluted Lipofectamine was then combined with the DNA/Plus mixture and incubated at room temperature for 15 min. • 4) The 293-EBNA plates were washed once with PBS and 5 ml DMEM/F12 was added to each plate. • 5) DNA/Plus/Lipofectamine mixture was added to each plate of 293-EBNA cells. The plates were left for 3 hr at 37° C. in a 5% CO2 incubator. • 6) The transfection medium was replaced with serum-free DMEM/F12 for cells transfected with 2XSREtk-p4Luc-zeo reporter DNA and with DMEM/F12 plus 10% FBS for cells transfected with 6XNFκBtk-p4Luc-zeo reporter DNA. • Day 2. • 2) Transfected cells were harvested by trypsinization and 50,000 cells per well were plated in 96-well Blackview plates coated with poly D-lysine Becton Dickinson Labware, Cat. 40640). […]
# human EDG-4 = target: T1, human EDG-4 (Homo sapiens, UniProt O95136, F273L/I205V); experiment: Relative potency and efficacy of agonists, luciferase (SRE) reporter in 293-EBNA cells expressing recombinant human EDG-4; type: cell-based; conditions: for Rank (EMax): rank of efficacy
# T1 construct: a 1059 bp open reading frame (excluding the stop codon) corresponding to the complete human edg-4 coding region; expressed in transfected cells; host or cells: 293-EBNA
# Description: Transfection of EDG-4, expression, pretreatment and treatment of 293-EBNA cells expressing recombinant human EDG-4 was carried out essentially as described in “Example 11. […] Results were tabulated in Microsoft Excel, and analyzed with GraphPad Prism sotfware. […] The luciferase response was expressed as fold response, after subtracting any endogenous response in pcDNA3-transfected cells at a given concentration of compound.
# human EDG-3 [3] = target: human EDG-3 (Homo sapiens, UniProt Q99500); experiment: SRE luciferase reporter in 293-EBNA cells, human EDG-3; type: cell-based; conditions: Assay 3; pancreas clone pC3-E3HP2; 3 μM
# human EDG-3 (Homo sapiens, UniProt Q99500), sequence (Q99500 whole entry): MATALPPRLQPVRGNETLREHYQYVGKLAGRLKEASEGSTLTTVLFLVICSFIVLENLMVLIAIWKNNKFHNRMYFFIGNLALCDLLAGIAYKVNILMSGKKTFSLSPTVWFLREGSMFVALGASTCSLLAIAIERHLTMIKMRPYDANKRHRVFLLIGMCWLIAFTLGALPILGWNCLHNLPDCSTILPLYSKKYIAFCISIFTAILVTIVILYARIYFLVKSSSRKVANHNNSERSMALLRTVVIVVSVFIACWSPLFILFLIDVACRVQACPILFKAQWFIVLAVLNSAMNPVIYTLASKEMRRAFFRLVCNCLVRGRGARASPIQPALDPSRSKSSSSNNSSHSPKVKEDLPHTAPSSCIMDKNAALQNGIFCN
# Description: The protocol described in Example 11 for Assay 1 was allowed except for the following changes: • 1) 100 mm plates of 293-EBNA ith a confluency of ˜80% were used for transfection, • 2) SRE Cotransfection: 0.5 μg of 2XSREtk-p4Luc-zeo reporter DNA and 3.5 μg pcDNA3, EDG-1, EDG-3 pC3-hE3P2, different from the clone used in Assay 2 of Example 11) or the newly cloned human EDG-4 (pC3-hedg4#36); NF-κB Cotransfection: 2 μg 6XNFκBtk-p4LUc-zeo reporter DNA and 2.0 μg pcDNA3, EDG-1, EDG-3 (pC3-hE3HP2), or EDG-4 (pC3-hedg4#36). Expression plasmid and reporter plasmid DNA samples were combined and diluted in 750 μl of DMEM/F12 (serum free media) and 20 μl Plus Reagent (Lipofectamine Plus Kit, Life Technologies Cat. 109640-13), and incubated at room temperature for 15 min. • 3) 30 μl Lipofectamine Reagent (Lipofectamine Plus Kit) was diluted in 750 μl DMEM/F12. The diluted Lipofectamine was then combined with the DNA/Plus mixture and incubated at room temperature for 15 min. • 4) The 293-EBNA plates were washed once with PBS and 5 ml DMEM/F12 was added to each plate. • 5) DNA/Plus/Lipofectamine mixture was added to each plate of 293-EBNA cells. […]
# rat EDG-4, sequence (P47752 whole entry): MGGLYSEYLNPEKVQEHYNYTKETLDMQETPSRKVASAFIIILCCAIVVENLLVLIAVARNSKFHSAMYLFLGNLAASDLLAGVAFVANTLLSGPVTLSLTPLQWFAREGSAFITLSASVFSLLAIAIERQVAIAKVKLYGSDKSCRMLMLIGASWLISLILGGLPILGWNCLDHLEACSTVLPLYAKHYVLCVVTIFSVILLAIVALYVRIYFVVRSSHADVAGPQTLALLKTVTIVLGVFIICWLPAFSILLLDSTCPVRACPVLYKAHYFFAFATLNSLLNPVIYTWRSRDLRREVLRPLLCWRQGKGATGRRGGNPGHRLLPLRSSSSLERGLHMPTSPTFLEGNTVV
# T1 sequence (O95136 whole entry I205V/F273L): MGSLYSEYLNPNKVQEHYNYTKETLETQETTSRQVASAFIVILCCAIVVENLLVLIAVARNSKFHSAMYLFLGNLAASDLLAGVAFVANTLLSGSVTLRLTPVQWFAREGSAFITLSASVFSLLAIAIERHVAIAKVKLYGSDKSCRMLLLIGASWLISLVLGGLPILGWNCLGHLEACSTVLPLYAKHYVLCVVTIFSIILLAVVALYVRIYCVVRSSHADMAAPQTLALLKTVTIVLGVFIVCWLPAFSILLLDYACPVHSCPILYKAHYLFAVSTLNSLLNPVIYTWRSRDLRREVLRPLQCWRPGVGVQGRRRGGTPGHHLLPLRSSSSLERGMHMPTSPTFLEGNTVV
Compound,IL-8 release (HL-60 cells),NF-κB reporter response in pcDNA3-transfected cells [1],IL-8 production (293-EBNA cells),"induction of NF-κB reporter (rat EDG-4; Assay 1, 24 hrs)","increase in luciferase activity (rat EDG-4; Assay 2, 3 μM)","induction of the NF-κB reporter gene compared to untreated controls (human EDG-3 [2]; Assay 3, pancreas EDG-3 clone, 3 μM)",NF-κB response (human EDG-3 [2]),agonist character at EDG-4 (human EDG-4),Rank (EMax) (human EDG-4),EMax (Percent) (human EDG-4; relative efficacy),SRE reporter response (human EDG-3 [3]),"increase in luciferase activity (rat EDG-4; Assay 1, 1 μM S1P, 24 hrs)","increase in luciferase activity (rat EDG-4; Assay 1, 5 μM or 10 μM S1P, 24 hrs)","Emax (human EDG-4; 293-EBNA, relative efficacy, read-out: EMax (Percent))"
lysophosphatidic acid [LPA],no such release,no response,no IL-8 production,,,,,,,,,,,
"CCCCCCCCCCCCC/C=C/[C@@H](O)[C@@H](N)COP(=O)([O-])OCC[N+](C)(C)C [SPC, sphingosylphosphorylcholine]",,No response; also recorded: No such induction,,induced the reporter gene,4 fold,about 8 fold,did not produce a NF-κB response,full agonists,1,100%,11 fold,,,
"CCCCCCCCCCCCC/C=C/[C@@H](O)[C@@H](N)COP(=O)(O)O [S1P, sphingosine 1-phosphate]",no such release; also recorded: fail to produce IL-8 below the cytotoxic threshold,No increase in luciferase activity; also recorded: No response; also recorded: No such induction,no IL-8 production,,3.5 fold,,did not produce a NF-κB response,full agonists,2,,12 fold,2 fold,4–4.5 fold,86.7%
